Like-named read-outs stand apart in the source and are kept apart here.
Assays:
[1] = tested on: fibroblasts at confluency; assay: Microscopic observation of toxicity effect during resting stage; format: cell-based, rat
Source text: A male mature rat was deeply anesthetized with ether, and disinfected by wiping carefully its tail with alcohol. The tail end part was cut by several centimeters, and the skin was removed from coccyx. Tendon was attached to the coccyx, and by culturing the same, fibroblasts can be recovered. Coccyx part was further cut finely with a sterilized pair of scissors, and adhered on a sterilized plastic plate with the cut surface down. After resting the plate for a while, DMEM supplemented with 10% FBS was added thereto. In approximately one week, fibroblasts germinated from the coccyx part, and proliferated in the plate. The fibroblasts collected from rat tail end were used for the following experiment.
From the result of Example 7, 2 ppm which is a value of platinum content that kills 50% of fibroblasts in CDDP during resting stage was set as a standard. Then, CDDP, PtCl4/HAP, PtCl4 and HAP dispersion liquids in an amount corresponding to 2 ppm of platinum content, were added to the fibroblasts at confluency in a medium, and cultured for 48 hours.

[2] = tested on: human lung cancer cell Lu65; assay: MTT assay, human lung cancer cell Lu65; format: cell-based
Description: (§1) Effect of platinum tetrachloride/hydroxyapatite (PtCl4/HAP) and hexachloroplatinate/hydroxyapatite (H2PtCl6/HAP) against human cancer cells (MTT assay)
(§2) According to “in vitro toxicity test using MTT”, which is an ordinary test method, MTT assay was performed for PtCl4/HAP (particle diameter 0.1 μm or less), and H2PtCl6/HAP (particle diameter 0.1 μm or less) by using 19 types of human cancer cells. PtCl4/HAP and H2PtCl6/HAP were used by adjusting the final dispersion concentration to 1.0% in a dispersion liquid each containing 10% platinum as a theoretical value. For comparison, MTT assay was performed for PtCl4 and CDDP. PtCl4 was dissolved at an adequate dose, and then used after serial dilution with PBS (−). For CDDP, injection liquid from Malco was used.

[3] = tested on: human lung cancer cell Lu99; assay: MTT assay, human lung cancer cell Lu99; format: cell-based
Description: as §1, §2

[4] = Lu65, platinum compound without hydroxyapatite, for comparison
[5] = Lu99, platinum compound without hydroxyapatite, for comparison

Compound | Microscopic observation of cell form of cultured fibroblasts [1] | IC50 of human lung cancer cells by MTT assay [2, 4] [ppm] | Platinum content calculated from IC50 of human lung cancer cell by MTT assay [2, 4] [ppm] | IC50 of human lung cancer cells by MTT assay [3, 5] [ppm] | Platinum content calculated from IC50 of human lung cancer cell by MTT assay [3, 5] [ppm] | other results
Hydroxyapatite [HAP] | almost no abnormality was observed |  |  |  |  | 
platinum tetrachloride/hydroxyapatite [PtCl4/HAP] | fibroblasts did not lose their original form |  |  |  |  | 
[Cl][Pt-2]([Cl])([Cl])([Cl])([Cl])[Cl].[H+].[H+] [H2PtCl6, hexachloroplatinate] |  |  |  |  |  | IC50 of human lung cancer cells by MTT assay [2]: 11.1 ppm; Platinum content calculated from IC50 of human lung cancer cell by MTT assay [2]: 5.3 ppm; IC50 of human lung cancer cells by MTT assay [3]: 7.2 ppm; Platinum content calculated from IC50 of human lung cancer cell by MTT assay [3]: 3.4 ppm
[Cl][Pt-2]([Cl])([Cl])[Cl].[K+].[K+] [K2PtCl4, dipotassium platinum tetrachloride] |  | 58.2 | 27.4 | 12.1 | 5.7 | 
[Cl][Pt-2]([Cl])([Cl])[Cl] [H2PtCl4, tetrachloroplatinate] |  | 8.8 | 5.1 | 9.1 |  | 
[Cl][Pt-2]([Cl])([Cl])[Cl].[Na+].[Na+] [Na2PtCl4, disodium platinum tetrachloride] |  | 8.8 | 4.5 | 9.2 | 4.7 | 

Reference: patent US20080069896A1, “Antitumor Composition” (Kabushiki Kaisha Sangi, priority 2004, published 2008)
